# Assays:
# CCRF-CEM = details: human, 48 h
# [1] = tested on: cell line panel (60 lines, nine disease-related subpanels)
# MAXF 401 = assay: SRB cytotoxicity screening assay (Breast Cancer); format: cell-based; details: MAXF 401 (Breast Cancer), 48 hour incubation
# MDR+ cell line = assay: Multidrug resistant cell line screening (MDR ratio); format: cell-based
# Description: The compound of the present invention was further tested on multidrug resistant cell lines. The resistance of cancer cells to multiple chemotherapeutic drugs which are structurally unrelated has been termed “multidrug resistance.” In the past several years, several mechanisms of multidrug resistance have been described, including the expression of a cell surface multidrug efflux pump (P-glycoprotein or the multidrug transporter), altered glutathione metabolism, reduced activity of topoisomerase II, and various less clearly defined changes in cellular proteins. Because of evidence that expression of P-glycoprotein is associated with drug-resistance in cancer, P-glycoprotein has been studied extensively from the point of view of its biochemistry and mechanism of action in order to develop inhibitors which can be used clinically to reverse drug resistance of cancers in patients. The clinical significance of the other mechanisms of multidrug resistance are less well-established, but many model systems indicate that they may contribute to clinical resistance.
# SK-OV-3 = assay: SRB cytotoxicity screening assay (Ovarian)
# SK-MEL-28 = assay: SRB cytotoxicity screening assay (Melanoma)
# SK-MEL-5 = assay: SRB cytotoxicity screening assay (Melanoma)
# SF-268 = assay: SRB cytotoxicity screening assay (CNS Cancer)
# SF-295 = assay: SRB cytotoxicity screening assay (CNS Cancer)
# SNB-75 = assay: SRB cytotoxicity screening assay (CNS Cancer)
# ACHN = assay: SRB cytotoxicity screening assay (Renal Cancer)
# MDA-MB-435 = assay: SRB cytotoxicity screening assay (Breast Cancer)
# MDA-N = assay: SRB cytotoxicity screening assay (Breast Cancer)
# SK-BR-3 = assay: SRB cytotoxicity screening assay (Breast Cancer)
# MDA-MB-468 = assay: SRB cytotoxicity screening assay (Breast Cancer)
# NCI-H23 = assay: SRB cytotoxicity screening assay (Non-Small Cell Lung Cancer)
smiles,measurement,setting,value
"CC(=O)O[C@H]1C(=O)[C@@]2(C)[C@H]([C@H](OC(=O)c3ccccc3)[C@]3(O)C[C@H](OC(=O)[C@H](O)[C@@H](NC(=O)c4ccccc4)c4ccccc4)C(C)=C1C3(C)C)[C@]1(OC(C)=O)CO[C@@H]1C[C@@H]2O [Paclitaxel, paclitaxel, reference compound]",Log10 LC50,CCRF-CEM,>−4.00 molar
same,"Log10 LC50, Range",[1],0.45
CCCCCC(=O)O[C@H]1C[C@H]2OC[C@@]2(OC(C)=O)[C@H]2[C@H](OC(=O)c3ccccc3)[C@]3(O)C[C@H](OC(=O)[C@H](O)[C@@H](NC(=O)c4ccccc4)c4ccccc4)C(C)=C([C@@H](OC(C)=O)C(=O)[C@]12C)C3(C)C [7-hexanoyltaxol],GI50,"MAXF 401; Homo sapiens, MAXF401, PG=+50, read-out: Log10 GI50 (converted)",< 10 nM
same,Log10 TGI,MAXF 401; PG=0,<−8.00 molar
same,"MDR (ratio of two IC50 values, numerator is an MDR+ cell line)",MDR+ cell line; higher numbers = less effective vs. MDR cells,1
same,effectiveness against multidrug resistant cell lines compared with paclitaxel,MDR+ cell line; multidrug resistant cell lines,vastly more effective than paclitaxel
same,GI50,"SK-OV-3; Homo sapiens, SK-OV-3, 48 h, read-out: Log10 GI50 (converted)",< 10 nM
same,CC50,"SK-OV-3; Homo sapiens, SK-OV-3, 48 h, read-out: Log10 LC50 (converted)",91200 nM
same,Log10 TGI,"SK-OV-3; SK-OV-3 (Ovarian), PG=0, 48 hour incubation",−4.84 molar
same,GI50,"SK-MEL-28; Homo sapiens, SK-MEL-28, 48 h, read-out: Log10 GI50 (converted)",< 10 nM
same,CC50,"SK-MEL-28; Homo sapiens, SK-MEL-28, 48 h, read-out: Log10 LC50 (converted)",> 100000 nM
same,Log10 TGI,"SK-MEL-28; SK-MEL-28 (Melanoma), PG=0, 48 hour incubation",−4.33 molar
same,GI50,"SK-MEL-5; Homo sapiens, SK-MEL-5, 48 h, read-out: Log10 GI50 (converted)",< 10 nM
same,CC50,"SK-MEL-5; Homo sapiens, SK-MEL-5, 48 h, read-out: Log10 LC50 (converted)",> 100000 nM
same,Log10 TGI,"SK-MEL-5; SK-MEL-5 (Melanoma), PG=0, 48 hour incubation",−4.56 molar
same,GI50,"SF-268; Homo sapiens, SF-268, 48 h, read-out: Log10 GI50 (converted)",< 10 nM
same,CC50,"SF-268; Homo sapiens, SF-268, 48 h, read-out: Log10 LC50 (converted)",> 100000 nM
same,Log10 TGI,"SF-268; SF-268 (CNS Cancer), PG=0, 48 hour incubation",−4.95 molar
same,GI50,"SF-295; Homo sapiens, SF-295, 48 h, read-out: Log10 GI50 (converted)",< 10 nM
same,CC50,"SF-295; Homo sapiens, SF-295, 48 h, read-out: Log10 LC50 (converted)",> 100000 nM
same,Log10 TGI,"SF-295; SF-295 (CNS Cancer), PG=0, 48 hour incubation",−6.41 molar
same,GI50,"SNB-75; Homo sapiens, SNB-75, 48 h, read-out: Log10 GI50 (converted)",< 10 nM
same,CC50,"SNB-75; Homo sapiens, SNB-75, 48 h, read-out: Log10 LC50 (converted)",> 100000 nM
same,Log10 TGI,"SNB-75; SNB-75 (CNS Cancer), PG=0, 48 hour incubation",−7.41 molar
same,Log10 TGI,"ACHN; ACHN (Renal Cancer), PG=0, 48 hour incubation",>−4.00 molar
same,GI50,"ACHN; Homo sapiens, ACHN, 48 h, read-out: Log10 GI50 (converted)",95.5 nM
same,CC50,"ACHN; Homo sapiens, ACHN, 48 h, read-out: Log10 LC50 (converted)",> 100000 nM
same,GI50,"MDA-MB-435; Homo sapiens, MDA-MB-435, 48 h, read-out: Log10 GI50 (converted)",< 10 nM
same,CC50,"MDA-MB-435; Homo sapiens, MDA-MB-435, 48 h, read-out: Log10 LC50 (converted)",< 10 nM
same,Log10 TGI,"MDA-MB-435; MDA-MB-435 (Breast Cancer), PG=0, 48 hour incubation",<−8.00 molar
same,GI50,"MDA-N; Homo sapiens, MDA-N, 48 h, read-out: Log10 GI50 (converted)",< 10 nM
same,CC50,"MDA-N; Homo sapiens, MDA-N, 48 h, read-out: Log10 LC50 (converted)",< 10 nM
same,Log10 TGI,"MDA-N; MDA-N (Breast Cancer), PG=0, 48 hour incubation",<−8.00 molar
same,GI50,"SK-BR-3; Homo sapiens, SK-BR-3, 48 h, read-out: Log10 GI50 (converted)",< 10 nM
same,CC50,"SK-BR-3; Homo sapiens, SK-BR-3, 48 h, read-out: Log10 LC50 (converted)",> 100000 nM
same,Log10 TGI,"SK-BR-3; SK-BR-3 (Breast Cancer), PG=0, 48 hour incubation",−6.04 molar
same,GI50,"MDA-MB-468; Homo sapiens, MDA-MB-468, 48 h, read-out: Log10 GI50 (converted)",< 10 nM
same,CC50,"MDA-MB-468; Homo sapiens, MDA-MB-468, 48 h, read-out: Log10 LC50 (converted)",> 100000 nM
same,Log10 TGI,"MDA-MB-468; MDA-MB-468 (Breast Cancer), PG=0, 48 hour incubation",−6.26 molar
same,GI50,"NCI-H23; Homo sapiens, NCI-H23, 48 h, read-out: Log10 GI50 (converted)",< 10 nM
same,CC50,"NCI-H23; Homo sapiens, NCI-H23, 48 h, read-out: Log10 LC50 (converted)",45700 nM
same,Log10 TGI,"NCI-H23; NCI-H23 (Non-Small Cell Lung Cancer), PG=0, 48 hour incubation",−4.86 molar

# — patent US6753345B2, “7-hexanolytaxol and methods for preparing the same” (Hauser, Inc., priority 1998, dated 2004)
